In US11407979B2, “Intermittent starvation techniques to prolong functional lifetime of liver cells in culture” (Colorado State University Research Foundation, priority 2017, dated 2022):

Key:
[1] = system: primary human hepatocytes in micropatterned co-cultures (MPCCs)
[2] = system: 3T3-J2 fibroblasts; assay: Fibroblast density in MPCCs, live cell imaging of nuclei (Hoechst 33342); type: cell-based, murine; conditions: metformin treated MPCCs, 4 weeks of culture
[3] = system: primary human hepatocytes in micropatterned co-cultures (MPCCs); assay: Hepatocyte island area (phase contrast) and polarization (CDCFDA bile canaliculi staining) in MPCCs; type: cell-based; conditions: metformin treated versus non-starved control MPCCs

Row | Structure (SMILES) | TC50 values for albumin production, non-starved cells compared with starved cells [1] | TC50 values for urea production, non-starved cells compared with starved cells [1] | identified as toxic (albumin or urea below 50% of DMSO control) [1] | further results
1 | CN1C(C(=O)Nc2ccccn2)=C(O)c2ccccc2S1(=O)=O [piroxicam] | similar | similar | – | –
2 | Clc1ccc(COC(Cn2ccnc2)c2ccc(Cl)cc2Cl)c(Cl)c1 (stereo not drawn) [miconazole] | – | – | toxic | –
3 | Cc1c(C)c2c(c(C)c1O)CCC(C)(COc1ccc(CC3SC(=O)NC3=O)cc1)O2 (stereo not drawn) [troglitazone] | similar | similar | – | –
4 | C[C@]12C=CC(=O)C=C1CC[C@@H]1[C@@H]2C(=O)C[C@@]2(C)[C@H]1CC[C@]2(O)C(=O)CO [prednisone] | – | – | toxic | –
5 | CN(C)C(=N)N=C(N)N [metformin] | – | – | – | fibroblast numbers [2]: did not change; hepatocyte island area [3]: not significantly higher; hepatocyte polarization [3]: not significantly higher
